PubChem BioAssay AID256 (DTP/NCI, 2004)
Where “and” joins values, the source holds several entries; their conditions need not be identical. Identical values can stand only once. Toxic doses and inconclusive results are not listed.

System: CD2F1 mice, L1210 leukemia ip, survival T/C
Test: NCI In Vivo Anticancer Drug Screen. Data for tumor model L1210 Leukemia (intraperitoneal) in CD2F1 (CDF1) mice
Settings: endpoint: mean survival time, higher = longer survival
Method in brief: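 Each value reflects a quotient of treated over vehicle control outcomes in mice with a transplanted tumor.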

[1] = dose: 200.0 mg/kg/injection, schedule: Q01DX001 (ip), vehicle: saline with Tween-80
[2] = dose: 100.0 mg/kg/injection, schedule: Q04DX003 (ip), vehicle: saline with Tween-80
[3] = dose: 200.0 mg/kg/injection, schedule: Q04DX003 (ip), vehicle: saline with Tween-80
[4] = dose: 400.0 mg/kg/injection, schedule: Q04DX003 (ip), vehicle: saline with Tween-80
[5] = dose: 100.0 mg/kg/injection, schedule: Q01DX001 (ip), vehicle: saline
[6] = dose: 200.0 mg/kg/injection, schedule: Q01DX001 (ip), vehicle: saline
[7] = dose: 400.0 mg/kg/injection, schedule: Q01DX001 (ip), vehicle: saline
[8] = dose: 100.0 mg/kg/injection, schedule: Q01DX009 (ip), vehicle: saline with Tween-80
[9] = dose: 200.0 mg/kg/injection, schedule: Q01DX009 (ip), vehicle: saline with Tween-80
[10] = dose: 400.0 mg/kg/injection, schedule: Q01DX009 (ip), vehicle: saline with Tween-80
[11] = dose: 100.0 mg/kg/injection, schedule: Q01DX001 (ip), vehicle: saline with Tween-80
[12] = dose: 400.0 mg/kg/injection, schedule: Q01DX001 (ip), vehicle: saline with Tween-80
[13] = dose: 50.0 mg/kg/injection, schedule: Q01DX009 (ip), vehicle: saline with Tween-80
[14] = dose: 100.0 mg/kg/injection, schedule: Q04DX003 (ip), vehicle: other
[15] = dose: 200.0 mg/kg/injection, schedule: Q04DX003 (ip), vehicle: other
[16] = dose: 400.0 mg/kg/injection, schedule: Q04DX003 (ip), vehicle: other

## Nc1nc(=O)n(CCCOc2ccc([N+](=O)[O-])c(Cl)c2)cc1-c1ccc(Cl)c(Cl)c1
[1]
  T/C: 90 % of control

## Clc1ncnc2c1ncn2C1CCCCO1 (stereo not given)
dose: 176.0 mg/kg/injection, schedule: Q01DX009 (ip), vehicle: other
  T/C: 117 % of control

## Brc1cccc2c1CCCC2
[2]
  T/C: 97 % of control
[3]
  T/C: 95 % of control
[4]
  T/C: 103 % of control

## CN(C)CC(C)(C)C(=O)c1ccc(Cl)cc1
dose: 100.0 mg/kg/injection, schedule: Q04DX002 (ip), vehicle: saline
  T/C: 93 % of control
dose: 200.0 mg/kg/injection, schedule: Q04DX002 (ip), vehicle: saline
  T/C: 89 % of control

## COc1cc2cc(c1Cl)N(C)C(=O)CC(OC(=O)C(C)C)C1(C)OC1C(C)C1CC(O)(NC(=O)O1)C(OC)/C=C/C=C(C)C2 (stereo not given)
dose: 3.8 micrograms/kg/injection, schedule: Q01DX009 (ip), vehicle: saline + alcohol
  T/C: 100 % of control
dose: 7.5 micrograms/kg/injection, schedule: Q01DX009 (ip), vehicle: saline + alcohol
  T/C: 97 % of control
dose: 15.0 micrograms/kg/injection, schedule: Q01DX009 (ip), vehicle: saline + alcohol
  T/C: 114 % of control
dose: 30.0 micrograms/kg/injection, schedule: Q01DX009 (ip), vehicle: saline + alcohol
  T/C: 111 % of control
dose: 60.0 micrograms/kg/injection, schedule: Q01DX009 (ip), vehicle: saline + alcohol
  T/C: 111 % of control

## NC(=S)NNc1ccccn1
dose: 25.0 mg/kg/injection, schedule: Q04DX002 (ip), vehicle: saline
  T/C: 106 % of control
dose: 50.0 mg/kg/injection, schedule: Q04DX002 (ip), vehicle: saline
  T/C: 108 % of control

## COc1ccc(/C=C2/N=C(C)OC2=O)cc1OC(C)=O
[5]
  T/C: 92 % of control
[6]
  T/C: 93 % of control
[7]
  T/C: 96 % of control

## O=C(O)CCC(=O)c1ccc(Br)cc1
[8]
  T/C: 94 % of control
[2]
  T/C: 101 % of control
[9]
  T/C: 103 % of control
[3]
  T/C: 97 % of control
[10]
  T/C: 91 % of control
[4]
  T/C: 89 % of control

## CCOC(=O)c1cnc(SC)nc1NC(C)c1ccccc1 (stereo not given)
[11]
  T/C: 94 % of control
[8]
  T/C: 97 % of control
[1]
  T/C: 88 % of control
[9]
  T/C: 89 % of control
[12]
  T/C: 89 % of control
[10]
  T/C: 94 % of control

## CC(c1ccccc1)n1cncc1C(=O)NN(C)C (stereo not given)
[11]
  T/C: 96 % of control
[1]
  T/C: 93 % of control
[12]
  T/C: 91 % of control

## CC1(C)CN(c2ccccc2)NC1=O
dose: 1.25 mg/kg/injection, schedule: Q01DX009 (ip), vehicle: Klucel (hydroxypropylcellulose) (HPC)
  T/C: 101 % of control
dose: 2.5 mg/kg/injection, schedule: Q01DX009 (ip), vehicle: Klucel (hydroxypropylcellulose) (HPC)
  T/C: 98 % of control
dose: 5.0 mg/kg/injection, schedule: Q01DX009 (ip), vehicle: Klucel (hydroxypropylcellulose) (HPC)
  T/C: 101 % of control

## COc1ccc(C(Cn2ccnc2)Sc2ccc(Cl)c(Cl)c2)cc1 (stereo not given)
dose: 6.25 mg/kg/injection, schedule: Q01DX009 (ip), vehicle: saline with Tween-80
  T/C: 96 % of control and 103 % of control
dose: 12.5 mg/kg/injection, schedule: Q01DX009 (ip), vehicle: saline with Tween-80
  T/C: 103 % of control and 104 % of control
dose: 25.0 mg/kg/injection, schedule: Q01DX009 (ip), vehicle: saline with Tween-80
  T/C: 98 % of control and 101 % of control
[13]
  T/C: 96 % of control and 108 % of control
[8]
  T/C: 101 % of control and 105 % of control

## CCc1c(N=O)c(-c2ccccc2)n(O)[n+]1[O-]
dose: 50.0 mg/kg/injection, schedule: Q01DX009 (ip), vehicle: Klucel (hydroxypropylcellulose) (HPC)
  T/C: 104 % of control
dose: 100.0 mg/kg/injection, schedule: Q01DX009 (ip), vehicle: Klucel (hydroxypropylcellulose) (HPC)
  T/C: 101 % of control
dose: 200.0 mg/kg/injection, schedule: Q01DX009 (ip), vehicle: Klucel (hydroxypropylcellulose) (HPC)
  T/C: 95 % of control

## ClCCN(CCCl)c1ccc(CCCCN2CCOCC2)cc1
dose: 10.0 mg/kg/injection, schedule: Q01DX009 (ip), vehicle: saline
  T/C: 119 % of control
dose: 40.0 mg/kg/injection, schedule: Q01DX009 (ip), vehicle: saline
  T/C: 103 % of control

## O=C(O)c1[nH]c(=O)[nH]c(=O)c1F.[Ga]
dose: 54.0 mg/kg/injection, schedule: Q01DX001 (ip), vehicle: saline with Tween-80
  T/C: 123 % of control
dose: 177.0 mg/kg/injection, schedule: Q01DX001 (ip), vehicle: saline with Tween-80
  T/C: 159 % of control

## O=C(O)c1cc(Br)c(-c2c(Br)cc(C(=O)O)cc2[N+](=O)[O-])c([N+](=O)[O-])c1
[8]
  T/C: 98 % of control
[2]
  T/C: 86 % of control
[9]
  T/C: 100 % of control
[3]
  T/C: 94 % of control
[4]
  T/C: 91 % of control

## O=[N+]([O-])c1ccc(/C(CBr)=N/N2CCCCCC2)cc1
[5]
  T/C: 91 % of control
[6]
  T/C: 92 % of control
[7]
  T/C: 95 % of control

## O=C1C(Br)=CC(Br)(Br)C=C1Br
[8]
  T/C: 88 % of control
[9]
  T/C: 91 % of control
[10]
  T/C: 86 % of control

## CCCSc1ccc2nc(NC(=O)OC)[nH]c2c1
[13]
  T/C: 93 % of control
[8]
  T/C: 107 % of control
[9]
  T/C: 118 % of control

## COC1CC2c3ccccc3C1C(C)=[N+]2C (stereo not given)
dose: 100.0 mg/kg/injection, schedule: Q04DX003 (ip), vehicle: saline
  T/C: 101 % of control
dose: 200.0 mg/kg/injection, schedule: Q04DX003 (ip), vehicle: saline
  T/C: 95 % of control
dose: 400.0 mg/kg/injection, schedule: Q04DX003 (ip), vehicle: saline
  T/C: 94 % of control

## C[N+]12CCC34c5ccccc5NC3C3C(CC(=O)[O-])OCC=C(C1)C3CC42 (stereo not given)
dose: 75.0 mg/kg/injection, schedule: Q01DX001 (ip), vehicle: other
  T/C: 96 % of control
dose: 150.0 mg/kg/injection, schedule: Q01DX001 (ip), vehicle: other
  T/C: 98 % of control

## O=C(CCBr)c1ccc(Cl)cc1
dose: 100.0 mg/kg/injection, schedule: Q01DX009 (ip), vehicle: saline sonified
  T/C: 97 % of control

## NC(CS(=O)c1ccc([N+](=O)[O-])cc1Cl)C(=O)O (stereo not given)
[8]
  T/C: 96 % of control

## Cc1cc(NC(=O)NC/C(Cl)=C/Cl)c2ccccc2n1
[11]
  T/C: 93 % of control
[1]
  T/C: 93 % of control
[12]
  T/C: 98 % of control

## COc1cccc2c1C(=O)c1c(O)c3c(c(O)c1C2=O)C[C@@](O)(C(=O)COC(=O)c1cccnc1)C[C@@H]3OC1CC(N)C(O)C(C)O1 (stereo not given in full)
dose: 0.25 mg/kg/injection, schedule: Q01DX009 (ip), vehicle: water
  T/C: 104 % of control
dose: 0.4 mg/kg/injection, schedule: Q01DX009 (ip), vehicle: saline with Tween-80
  T/C: 120 % of control
dose: 0.5 mg/kg/injection, schedule: Q01DX009 (ip), vehicle: water
  T/C: 109 % of control
dose: 1.0 mg/kg/injection, schedule: Q01DX009 (ip), vehicle: water
  T/C: 122 % of control
dose: 1.5 mg/kg/injection, schedule: Q01DX009 (ip), vehicle: saline
  T/C: 168 % of control
dose: 2.0 mg/kg/injection, schedule: Q01DX009 (ip), vehicle: water
  T/C: 120 % of control
dose: 4.0 mg/kg/injection, schedule: Q01DX009 (ip), vehicle: water
  T/C: 108 % of control

## CCOC(=O)Nc1c(C)noc1NC(C)=O
[8]
  T/C: 95 % of control
[2]
  T/C: 94 % of control
[9]
  T/C: 95 % of control
[3]
  T/C: 94 % of control
[10]
  T/C: 104 % of control
[4]
  T/C: 94 % of control

## C[Si](O)(O)CCCCNC(=O)/C=C\C(=O)O
[14]
  T/C: 89 % of control
[15]
  T/C: 93 % of control
[16]
  T/C: 89 % of control

## FC1CC=C(S)CC1 (stereo not given)
dose: 5.0 mg/kg/injection, schedule: Q01DX001 (ip), vehicle: saline
  T/C: 100 % of control
dose: 10.0 mg/kg/injection, schedule: Q01DX001 (ip), vehicle: saline
  T/C: 106 % of control
dose: 20.0 mg/kg/injection, schedule: Q01DX001 (ip), vehicle: saline
  T/C: 103 % of control
dose: 40.0 mg/kg/injection, schedule: Q01DX001 (ip), vehicle: saline
  T/C: 100 % of control
dose: 80.0 mg/kg/injection, schedule: Q01DX001 (ip), vehicle: saline
  T/C: 102 % of control

## CCCCCCCC(=O)NC1CCC(C(C)(C)C)CC1 (stereo not given)
[14]
  T/C: 93 % of control
[15]
  T/C: 94 % of control
[16]
  T/C: 89 % of control
